From patent US4349672A, “Cephalosporin derivatives” (Hoffmann-La Roche Inc., priority 1979, dated 1982)
Structures can show the parent of a compound that is named as a salt.

Key:
Assay in all cases: Activity in vitro: minimum inhibitory concentration
Format in all cases: cell-based
Acinetobacter anitratus = conditions: Acinetobacter calcoaceticus, gram negative
Description: (§1) Activity in vitro: Minimum inhibitory concentration (μg/ml)

Escherichia coli = test system: Escherichia coli
Description: as §1

Enterobacter cloacae = test system: Enterobacter cloacae
Description: as §1

Streptococcus pyogenes = conditions: gram positive
Description: as §1

Proteus rettgeri = conditions: Providencia rettgeri, gram negative
Description: as §1

Proteus mirabilis = test system: Proteus mirabilis
Description: as §1

Serratia marcescens = test system: Serratia marcescens
Description: as §1

Citrobacter freundii = test system: Citrobacter freundii
Description: as §1

Enterobacter aerogenes = conditions: Klebsiella aerogenes
Description: as §1

Proteus vulgaris = test system: Proteus vulgaris
Description: as §1

Klebsiella pneumoniae = test system: Klebsiella pneumoniae
Description: as §1

Proteus inconstans = conditions: Providencia alcalifaciens, gram negative
Description: as §1

[1] = Escherichia coli Strain 1, gram negative
[2] = Escherichia coli Strain 2, gram negative
[3] = Escherichia coli Strain 3, gram negative
[4] = Escherichia coli Strain 4, gram negative
[5] = Enterobacter cloacae Strain 1, gram negative
[6] = Enterobacter cloacae Strain 2, gram negative
[7] = Proteus mirabilis Strain 1, gram negative
[8] = Proteus mirabilis Strain 2, gram negative
[9] = Serratia marcescens Strain 1, gram negative
[10] = Serratia marcescens Strain 2, gram negative
[11] = Citrobacter freundii Strain 1, gram negative
[12] = Citrobacter freundii Strain 2, gram negative
[13] = Enterobacter aerogenes Strain 1, gram negative
[14] = Enterobacter aerogenes Strain 2, gram negative
[15] = Proteus vulgaris Strain 1, gram negative
[16] = Proteus vulgaris Strain 2, gram negative
[17] = Proteus vulgaris Strain 3, gram negative
[18] = Klebsiella pneumoniae Strain 1, gram negative
[19] = Klebsiella pneumoniae Strain 2, gram negative
[20] = Klebsiella pneumoniae Strain 3, gram negative

| MIC (Acinetobacter anitratus) | MIC (Escherichia coli; [1]) | MIC (Escherichia coli; [2]) | MIC (Escherichia coli; [3]) | MIC (Escherichia coli; [4]) | MIC (Enterobacter cloacae; [5]) | MIC (Enterobacter cloacae; [6]) | MIC (Streptococcus pyogenes) | MIC (Proteus rettgeri) | MIC (Proteus mirabilis; [7]) | MIC (Proteus mirabilis; [8]) | MIC (Serratia marcescens; [9]) | MIC (Serratia marcescens; [10]) | MIC (Citrobacter freundii; [11]) | MIC (Citrobacter freundii; [12]) | MIC (Enterobacter aerogenes; [13]) | MIC (Enterobacter aerogenes; [14]) | MIC (Proteus vulgaris; [15]) | MIC (Proteus vulgaris; [16]) | MIC (Proteus vulgaris; [17]) | Structure (SMILES) | other results |
| --- | --- | --- | --- | --- | --- | --- | --- | --- | --- | --- | --- | --- | --- | --- | --- | --- | --- | --- | --- | --- | --- |
| 25 µg/mL | 0.025 µg/mL | 0.19 µg/mL | 0.1 µg/mL | 0.1 µg/mL | 3.1 µg/mL | 0.19 µg/mL | 1.6 µg/mL | ≤ 0.006 µg/mL | 0.025 µg/mL | 0.39 µg/mL | 0.39 µg/mL | 0.19 µg/mL | 0.19 µg/mL | 0.05 µg/mL | 0.19 µg/mL | 0.1 µg/mL | 0.1 µg/mL | 0.1 µg/mL | 0.05 µg/mL | CO/N=C(\C(=O)N[C@@H]1C(=O)N2C(C(=O)O)=C(CSc3nc(=O)c(O)nn3C)C[S@+]([O-])[C@H]12)c1csc(N)n1 [Derivative A, disodium salt of (6R,7R)-7-[2-(2-amino-4-thiazolyl)-2-[(Z)-methoxyimino]acetamido]-3-[[(2,5-dihydro-6-hydroxy-2-methyl-5-oxo-as-triazin-3-yl)thio]methyl]-8-oxo-5-thia-1-azabicyclo[4.2.0]oct-2-ene-2-carboxylic acid 5-(s)-oxide] | MIC (Klebsiella pneumoniae; [18]): 0.1 µg/mL; MIC (Klebsiella pneumoniae; [19]): 0.025 µg/mL; MIC (Klebsiella pneumoniae; [20]): 0.1 µg/mL; MIC (Proteus inconstans): ≤ 0.006 µg/mL |
| 100 µg/mL | 0.05 µg/mL | 0.39 µg/mL | 0.19 µg/mL | 0.39 µg/mL | 6.3 µg/mL | 0.39 µg/mL | 3.1 µg/mL | 0.05 µg/mL | 0.1 µg/mL | 0.78 µg/mL | 1.6 µg/mL | 0.78 µg/mL | 0.19 µg/mL | 0.19 µg/mL | 0.39 µg/mL | 0.1 µg/mL | 0.39 µg/mL | 0.19 µg/mL | 0.19 µg/mL | CO/N=C(\C(=O)N[C@@H]1C(=O)N2C(C(=O)O)=C(CSc3nc(=O)c(O)nn3C)CS(=O)(=O)[C@H]12)c1csc(N)n1 [Derivative B, disodium salt of (6R,7R)-7-[2-(2-amino-4-thiazolyl)-2-[(Z)-methoxyimino]acetamido]-3-[[(2,5-dihydro-6-hydroxy-2-methyl-5-oxo-as-triazin-3-yl)thio]methyl]-8-oxo-5-thia-1-azabicyclo[4.2.0]oct-2-ene-2-carboxylic acid 5,5-dioxide] | MIC (Klebsiella pneumoniae; [18]): 0.39 µg/mL; MIC (Klebsiella pneumoniae; [19]): 0.19 µg/mL; MIC (Klebsiella pneumoniae; [20]): 0.19 µg/mL; MIC (Proteus inconstans): 0.025 µg/mL |
